Reference: ChEMBL document CHEMBL1133292, “Some selective reactions of moenomycin A” (Bioorg Med Chem Lett, 2000)

Experiments:
[1] = Compound was coli; parameters: species or system Escherichia coli
[2] = Compound was coli; Inactive; parameters: species or system Escherichia coli

Row | IC50 [1] [nM l-1] | IC50 [2] | SMILES
1 | 247 | – | CCCCCCCCCCCCCCNCCO[C@H](COP(=O)(O)O[C@H]1O[C@@H](C(N)=O)[C@@](C)(O)[C@H](OC(N)=O)[C@@H]1O[C@@H]1O[C@@H](CO[C@@H]2O[C@@H](CO)[C@@H](O)[C@H](O)[C@@H]2O)[C@@H](O[C@@H]2O[C@@H](C)[C@@H](O[C@@H]3O[C@@H](C(N)=O)[C@H](O)[C@H](O)[C@@H]3O)[C@H](O)[C@@H]2NC(C)=O)[C@H](O)[C@@H]1NC(C)=O)C(=O)O
2 | 31 | – | CCCCCCCCc1ccc(NCCO[C@H](COP(=O)(O)O[C@H]2O[C@@H](C(N)=O)[C@@](C)(O)[C@H](OC(N)=O)[C@@H]2O[C@@H]2O[C@@H](CO[C@@H]3O[C@@H](CO)[C@@H](O)[C@H](O)[C@@H]3O)[C@@H](O[C@@H]3O[C@@H](C)[C@@H](O[C@@H]4O[C@@H](C(N)=O)[C@H](O)[C@H](O)[C@@H]4O)[C@H](O)[C@@H]3NC(C)=O)[C@H](O)[C@@H]2NC(C)=O)C(=O)O)cc1

The next lines start with the compound.

Row | SMILES | IC50 [1] [nM l-1] | IC50 [2]
3 | C=CC(C)(CC/C=C(\C)CCC=C(C)C)C(O)CO[C@H](COP(=O)(O)O[C@H]1O[C@@H](C(N)=O)[C@@](C)(O)[C@H](OC(N)=O)[C@@H]1O[C@@H]1O[C@@H](CO[C@@H]2O[C@@H](CO)[C@@H](O)[C@H](O)[C@@H]2O)[C@@H](O[C@@H]2O[C@@H](C)[C@@H](O[C@@H]3O[C@@H](C(N)=O)[C@H](O)[C@H](O)[C@@H]3O)[C@H](O)[C@@H]2NC(C)=O)[C@H](O)[C@@H]1NC(C)=O)C(=O)O (stereo not given in full) | 106 | –
4 | CC(=O)N[C@@H]1[C@H](O[C@H]2[C@H](O)[C@H](NC(C)=O)[C@H](O[C@@H]3[C@@H](OP(=O)(O)OC[C@@H](OCCN(C4CCCCC4)C4CCCCC4)C(=O)O)O[C@@H](C(N)=O)[C@@](C)(O)[C@@H]3OC(N)=O)O[C@H]2CO[C@@H]2O[C@@H](CO)[C@@H](O)[C@H](O)[C@@H]2O)O[C@@H](C)[C@@H](O[C@@H]2O[C@@H](C(N)=O)[C@H](O)[C@H](O)[C@@H]2O)[C@@H]1O | – | Not Active
5 | C=C(C/C=C(\C)CCC=C(C)C)CCC(C)(C)/C=C/CC/C(C)=C/CO[C@@H](COP(=O)(O)O[C@H]1O[C@H](C(N)=O)[C@@](C)(O)[C@H](OC(N)=O)[C@H]1O[C@@H]1O[C@H](CO[C@@H]2O[C@H](CO)[C@@H](O)[C@H](O)[C@H]2O)[C@@H](O[C@@H]2O[C@H](C)[C@@H](O[C@@H]3O[C@H](C(=O)NC4=C(O)CCC4=O)[C@H](O)[C@H](O)[C@H]3O)[C@H](O)[C@H]2NC(C)=O)[C@H](O)[C@H]1NC(C)=O)C(=O)O [MOENOMYCIN A] | 1.5 | –
